{"source": "patent US11661403B2", "about": "“Oxadiazole compounds” (Vivace Therapeutics, Inc., priority 2018, dated 2023)"}
{"tested_on": "8XTBD luciferase reporter (YAP) in HEK293T cells", "assay": "YAP Reporter Assay", "assay_type": "cell-based", "settings": "Homo sapiens, HEK-293T, 24 h, read-out: Firefly Luciferase IC50 (μM)", "units": {"IC50": "µM"}}
{"smiles": "CN(C)C(=O)c1nnc(-c2ccccc2Nc2ccc(C(F)(F)F)cc2)o1", "note": "[Compound 194, N,N-dimethyl-5-(2-((4-(trifluoromethyl)phenyl)amino)phenyl)-1,3,4-oxadiazole-2-carboxamide]", "IC50": "1 to 5"}
{"tested_on": "8XTBD luciferase reporter (YAP) in HEK293T cells", "assay": "YAP Reporter Assay", "assay_type": "cell-based", "settings": "Homo sapiens, HEK-293T; HEK293T cells stably transfected with 8XTBD luciferase reporter and pRLTK; 24-hr incubation; top concentration 3 μM; read-out: Firefly Luciferase IC50", "units": {"IC50": "µM"}}
{"smiles": "O=c1[nH]c(-c2nnc(-c3ccccc3Nc3ccc(C(F)(F)F)cc3)o2)no1", "note": "[Compound 50, 3-[5-[2-[4-(trifluoromethyl)anilino]phenyl]-1,3,4-oxadiazol-2-yl]-4H-1,2,4-oxadiazol-5-one]", "IC50": "1 to 5"}
{"smiles": "FC(F)(F)c1ccc(Nc2ccccc2-c2nnc(-c3cocn3)o2)cc1", "note": "[Compound 36, 2-(5-(oxazol-4-yl)-1,3,4-oxadiazol-2-yl)-N-(4-(trifluoromethyl)phenyl)aniline]", "IC50": "0.1 to 1"}
{"smiles": "CNCC(C)c1nnc(-c2ccccc2Nc2ccc(C(F)(F)F)cc2)o1", "note": "(stereo not drawn) [Compound 150, 2-(5-(1-(methylamino)propan-2-yl)-1,3,4-oxadiazol-2-yl)-N-(4-(trifluoromethyl)phenyl)aniline]", "IC50": "0.1 to 1"}
{"smiles": "CC1(c2nnc(-c3ccccc3Nc3ccc(C(F)(F)F)cc3)o2)CCCO1", "note": "(stereo not drawn) [Compound 178, 2-(5-(2-methyltetrahydrofuran-2-yl)-1,3,4-oxadiazol-2-yl)-N-(4-(trifluoromethyl)phenyl)aniline]", "IC50": "< 0.1"}
{"smiles": "OC1(c2nnc(-c3ccccc3Nc3ccc(C(F)(F)F)cc3)o2)CC1", "note": "[Compound 44, 1-(5-(2-((4-(trifluoromethyl)phenyl)amino)phenyl)-1,3,4-oxadiazol-2-yl)cyclopropanol]", "IC50": "< 0.1"}
{"smiles": "CNC(=O)c1nnc(-c2ccccc2Nc2ccc(C(F)(F)F)cc2)o1", "note": "[Compound 198, N-methyl-5-(2-((4-(trifluoromethyl)phenyl)amino)phenyl)-1,3,4-oxadiazole-2-carboxamide]", "IC50": "< 0.1"}
{"smiles": "FC(F)(F)c1ccc(Nc2ccccc2-c2nnco2)cc1", "note": "[Compound 20, 2-(1,3,4-oxadiazol-2-yl)-N-[4-(trifluoromethyl)phenyl]aniline]", "IC50": "0.1 to 1"}
{"smiles": "FC(F)(F)c1ccc(Nc2ccccc2-c2nnc(C3(F)CC3)o2)cc1", "note": "[Compound 63, 2-(5-(1-fluorocyclopropyl)-1,3,4-oxadiazol-2-yl)-N-(4-(trifluoromethyl)phenyl) aniline]", "IC50": "1 to 5"}
{"smiles": "CCOC(=O)CNc1nnc(-c2ccccc2Nc2ccc(C(F)(F)F)cc2)o1", "note": "[Compound 9, ethyl (5-(2-((4-(trifluoromethyl)phenyl)amino)phenyl)-1,3,4-oxadiazol-2-yl)glycinate]", "IC50": "1 to 5"}
{"smiles": "CC(CO)NC(=O)c1nnc(-c2ccccc2Nc2ccc(C(F)(F)F)cc2)o1", "note": "(stereo not drawn) [Compound 189, N-(1-hydroxypropan-2-yl)-5-(2-((4-(trifluoromethyl)phenyl)amino)phenyl)-1,3,4-oxadiazole-2-carboxamide]", "IC50": "0.1 to 1"}
{"smiles": "CC(C)N(C#N)Cc1nnc(-c2ccccc2Nc2ccc(C(F)(F)F)cc2)o1", "note": "[Compound 99, N-isopropyl-N-((5-(2-((4-(trifluoromethyl)phenyl)amino)phenyl)-1,3,4-oxadiazol-2-yl)methyl)cyanamide]", "IC50": "0.1 to 1"}
{"smiles": "CN(C)c1nnc(-c2ccccc2Nc2ccc(C(F)(F)F)cc2)o1", "note": "[Compound 6, N,N-dimethyl-5-(2-((4-(trifluoromethyl)phenyl)amino)phenyl)-1,3,4-oxadiazol-2-amine]", "IC50": "1 to 5"}
{"smiles": "CNC1(c2nnc(-c3ccccc3Nc3ccc(C(F)(F)F)cc3)o2)CC1", "note": "[Compound 153, 2-(5-(1-(methylamino)cyclopropyl)-1,3,4-oxadiazol-2-yl)-N-(4-(trifluoromethyl)phenyl)aniline]", "IC50": "0.1 to 1"}
{"smiles": "COCC(C)NC(=O)c1nnc(-c2ccccc2Nc2ccc(C(F)(F)F)cc2)o1", "note": "(stereo not drawn) [Compound 188, N-(1-methoxypropan-2-yl)-5-(2-((4-(trifluoromethyl)phenyl)amino)phenyl)-1,3,4-oxadiazole-2-carboxamide]", "IC50": "0.1 to 1"}
{"smiles": "N#CN1CCCC1c1nnc(-c2ccccc2Nc2ccc(C(F)(F)F)cc2)o1", "note": "(stereo not drawn) [Compound 171, 2-(5-(2-((4-(trifluoromethyl)phenyl)amino)phenyl)-1,3,4-oxadiazol-2-yl)pyrrolidine-1-carbonitrile]", "IC50": "< 0.1"}
{"smiles": "CN(C#N)C1(c2nnc(-c3ccccc3Nc3ccc(C(F)(F)F)cc3)o2)CC1", "note": "[Compound 155, N-methyl-N-(1-(5-(2-((4-(trifluoromethyl)phenyl)amino)phenyl)-1,3,4-oxadiazol-2-yl)cyclopropyl)cyanamide]", "IC50": "< 0.1"}
{"smiles": "OC(CCl)c1nnc(-c2ccccc2Nc2ccc(C(F)(F)F)cc2)o1", "note": "(stereo not drawn) [Compound 81, 2-chloro-1-(5-(2-((4-(trifluoromethyl)phenyl)amino)phenyl)-1,3,4-oxadiazol-2-yl)ethan-1-ol]", "IC50": "< 0.1"}
{"smiles": "CC1(C)OCC(O)(c2nnc(-c3ccccc3Nc3ccc(C(F)(F)F)cc3)o2)CO1", "note": "[Compound 199, 2,2-dimethyl-5-(5-(2-((4-(trifluoromethyl)phenyl)amino)phenyl)-1,3,4-oxadiazol-2-yl)-1,3-dioxan-5-ol]", "IC50": "1 to 5"}
{"smiles": "CC1(c2nnc(-c3ccccc3Nc3ccc(C(F)(F)F)cc3)o2)OCCO1", "note": "[Compound 86, 2-(5-(2-methyl-1,3-dioxolan-2-yl)-1,3,4-oxadiazol-2-yl)-N-(4-(trifluoromethyl)phenyl)aniline]", "IC50": "< 0.1"}
{"smiles": "CN(C#N)CC(C)(C)c1nnc(-c2ccccc2Nc2ccc(C(F)(F)F)cc2)o1", "note": "[Compound 146, N-methyl-N-(2-methyl-2-(5-(2-((4-(trifluoromethyl)phenyl)amino)phenyl)-1,3,4-oxadiazol-2-yl)propyl)cyanamide]", "IC50": "< 0.1"}
{"smiles": "COCCNC(=O)c1nnc(-c2ccccc2Nc2ccc(C(F)(F)F)cc2)o1", "note": "[Compound 190, N-(2-methoxyethyl)-5-(2-((4-(trifluoromethyl)phenyl)amino)phenyl)-1,3,4-oxadiazole-2-carboxamide]", "IC50": "< 0.1"}
{"smiles": "CC(C)NCCc1nnc(-c2ccccc2Nc2ccc(C(F)(F)F)cc2)o1", "note": "[Compound 91, 2-(5-(2-(isopropylamino)ethyl)-1,3,4-oxadiazol-2-yl)-N-(4-(trifluoromethyl)phenyl)aniline]", "IC50": "1 to 5"}
{"smiles": "CC(C)NCc1nnc(-c2ccccc2Nc2ccc(C(F)(F)F)cc2)o1", "note": "[Compound 97, 2-(5-((isopropylamino)methyl)-1,3,4-oxadiazol-2-yl)-N-(4-(trifluoromethyl)phenyl)aniline]", "IC50": "1 to 5"}
{"smiles": "CC(C)N(C#N)CCc1nnc(-c2ccccc2Nc2ccc(C(F)(F)F)cc2)o1", "note": "[Compound 93, N-isopropyl-N-(2-(5-(2-((4-(trifluoromethyl)phenyl)amino)phenyl)-1,3,4-oxadiazol-2-yl)ethyl)cyanamide]", "IC50": "0.1 to 1"}
{"smiles": "OC(c1nnc(-c2ccccc2Nc2ccc(C(F)(F)F)cc2)o1)C(F)F", "note": "(stereo not drawn) [Compound 60, 2,2-difluoro-1-(5-(2-((4-(trifluoromethyl)phenyl)amino)phenyl)-1,3,4-oxadiazol-2-yl)ethanol]", "IC50": "< 0.1"}
{"smiles": "O=C(O)Cc1nnc(-c2ccccc2Nc2ccc(C(F)(F)F)cc2)o1", "note": "[Compound 119, 2-(5-(2-((4-(trifluoromethyl)phenyl)amino)phenyl)-1,3,4-oxadiazol-2-yl)acetic acid]", "IC50": "0.1 to 1"}
{"smiles": "O=C(O)C1(c2nnc(-c3ccccc3Nc3ccc(C(F)(F)F)cc3)o2)CC1", "note": "[Compound 166, 1-(5-(2-((4-(trifluoromethyl)phenyl)amino)phenyl)-1,3,4-oxadiazol-2-yl)cyclopropane-1-carboxylic Acid]", "IC50": "< 0.1"}
{"smiles": "CC(C)(CO)c1nnc(-c2ccccc2Nc2ccc(C(F)(F)F)cc2)o1", "note": "[Compound 45, 2-methyl-2-(5-(2-((4-(trifluoromethyl)phenyl)amino)phenyl)-1,3,4-oxadiazol-2-yl)propan-1-ol]", "IC50": "< 0.1"}
{"smiles": "CC(C)(C)OC(=O)NC1(c2nnc(-c3ccccc3Nc3ccc(C(F)(F)F)cc3)o2)CC1", "note": "[Compound 57, Tert-Butyl (1-(5-(2-((4-(trifluoromethyl)phenyl)amino)phenyl)-1,3,4-oxadiazol-2-yl)cyclopropyl)carbamate]", "IC50": "0.1 to 1"}
{"smiles": "CON(C)C(=O)c1nnc(-c2ccccc2Nc2ccc(C(F)(F)F)cc2)o1", "note": "[Compound 192, N-methoxy-N-methyl-5-(2-((4-(trifluoromethyl)phenyl)amino)phenyl)-1,3,4-oxadiazole-2-carboxamide]", "IC50": "0.1 to 1"}
{"smiles": "C=Cc1nnc(-c2ccccc2Nc2ccc(C(F)(F)F)cc2)o1", "note": "[Compound 123, N-(4-(trifluoromethyl)phenyl)-2-(5-vinyl-1,3,4-oxadiazol-2-yl)aniline]", "IC50": "< 0.1"}
{"smiles": "CNC(C)Cc1nnc(-c2ccccc2Nc2ccc(C(F)(F)F)cc2)o1", "note": "(stereo not drawn) [Compound 147, 2-(5-(2-(methylamino)propyl)-1,3,4-oxadiazol-2-yl)-N-(4-(trifluoromethyl)phenyl)aniline]", "IC50": "1 to 5"}
{"smiles": "FC(F)(F)c1ccc(Nc2ccccc2-c2nnc(-c3nn[nH]n3)o2)cc1", "note": "[Compound 48, 2-[5-(2H-tetrazol-5-yl)-1,3,4-oxadiazol-2-yl]-N-[4-(trifluoromethyl)phenyl]aniline]", "IC50": "1 to 5"}
{"smiles": "FC(F)(F)c1ccc(Nc2ccccc2-c2nnc(C3CCO3)o2)cc1", "note": "(stereo not drawn) [Compound 182, 2-(5-(oxetan-2-yl)-1,3,4-oxadiazol-2-yl)-N-(4-(trifluoromethyl)phenyl)aniline]", "IC50": "< 0.1"}
{"smiles": "CN(C#N)C(C)(C)c1nnc(-c2ccccc2Nc2ccc(C(F)(F)F)cc2)o1", "note": "[Compound 158, N-methyl-N-(2-(5-(2-((4-(trifluoromethyl)phenyl)amino)phenyl)-1,3,4-oxadiazol-2-yl)propan-2-yl)cyanamide]", "IC50": "< 0.1"}
{"smiles": "CS(=O)(=O)c1nnc(-c2ccccc2Nc2ccc(C(F)(F)F)cc2)o1", "note": "[Compound 71, 2-(5-(methylsulfonyl)-1,3,4-oxadiazol-2-yl)-N-(4-(trifluoromethyl)phenyl)aniline]", "IC50": "0.1 to 1"}
{"tested_on": "8XTBD luciferase reporter (YAP) in HEK293T cells", "assay": "YAP Reporter Assay", "assay_type": "cell-based", "settings": "Homo sapiens, HEK-293T; […]; 24-hr incubation; top concentration 3 μM; read-out: Firefly Luciferase IC50", "units": {"IC50": "µM"}}
{"smiles": "C=CCOc1nnc(-c2ccccc2Nc2ccc(C(F)(F)F)cc2)o1", "note": "[Compound 84, 2-(5-(allyloxy)-1,3,4-oxadiazol-2-yl)-N-(4-(trifluoromethyl)phenyl)aniline]", "IC50": "0.1 to 1"}
{"smiles": "OC(CCCl)c1nnc(-c2ccccc2Nc2ccc(C(F)(F)F)cc2)o1", "note": "(stereo not drawn) [Compound 80, 3-chloro-1-(5-(2-((4-(trifluoromethyl)phenyl)amino)phenyl)-1,3,4-oxadiazol-2-yl)propan-1-ol]", "IC50": "< 0.1"}
